From patent US6344439B1, “Agents for promoting bone formation” (priority 1995, dated 2002)
Where two headings read alike, the source gives them in different places.

Experiments:
[1] = tested on: osteoblasts of rat fetal calvaria; assay type: cell-based; conditions: for Alkaline phosphatase activity: mean ± SD n=4; for Effect on alkaline phosphatase activity (in words): at 10^−8M
[2] = tested on: osteoblasts of rat fetal calvaria; conditions: for Calcified area / No. of bone tuberculum: mean ± SD n=4; for No. of bone tuberculum: Tables 1-2 experiment (non-treated 146.5 ± 10.9)
[3] = 10^−8M, Table 1 experiment (non-treated 0.044 ± 0.014)
[4] = 10^−8M, Table 3 experiment (non-treated 0.084 ± 0.008)
[5] = 10^−8M, Table 3 experiment (non-treated 4.46 ± 0.83)

C[C@@H]1C[C@H]2[C@@H]3CCC4=CC(=O)C=C[C@]4(C)[C@@]3(F)[C@@H](O)C[C@]2(C)[C@@]1(O)C(=O)CO [Dexamethasone, reference compound]
Alkaline phosphatase activity [1, 3]: 0.181 ± 0.018 μM/min/well
Alkaline phosphatase activity [1, 4]: 0.143 ± 0.015 μM/min/well
Calcified area [2, 5]: 13.82 ± 1.20 mm^2/well
Calcified area ([2]; 10^−8M, Table 4 experiment (non-treated 2.56 ± 0.11)): 12.17 ± 1.05 mm^2/well
No. of bone tuberculum ([2]; 10^−8M): 307.3 ± 34.1 per well

Gly-Arg-Gly-Asp-Ser (GRGDS) [reference compound]
No. of bone tuberculum ([2]; 10^−4M): 168.3 ± 17.1 per well
No. of bone tuberculum ([2]; 10^−6M): 166.5 ± 10.6 per well
Effect on calcification (in words) ([2]; at 10^−4M): completely prevent
Effect on calcification (in words) ([2]; at 10^−6M): promote
Effect on the number of bone tuberculum (in words) ([2]; at 10^−6M and 10^−4M ("these concentrations")): tendency to be increased

Kistrin
Alkaline phosphatase activity ([1]; 10^−5M, Table 3 experiment (non-treated 0.084 ± 0.008)): 0.085 ± 0.009 μM/min/well
Alkaline phosphatase activity ([1]; 10^−6M, Table 1 experiment (non-treated 0.044 ± 0.014)): 0.040 ± 0.003 μM/min/well
Alkaline phosphatase activity ([1]; 10^−6M, Table 3 experiment (non-treated 0.084 ± 0.008)): 0.119 ± 0.008 μM/min/well
Alkaline phosphatase activity ([1]; 10^−7M, Table 1 experiment (non-treated 0.044 ± 0.014)): 0.051 ± 0.007 μM/min/well
Alkaline phosphatase activity ([1]; 10^−7M, Table 3 experiment (non-treated 0.084 ± 0.008)): 0.133 ± 0.006 μM/min/well
Alkaline phosphatase activity [1, 3]: 0.067 ± 0.005 μM/min/well
Alkaline phosphatase activity [1, 4]: 0.126 ± 0.006 μM/min/well
Alkaline phosphatase activity ([1]; 10^−9M, Table 1 experiment (non-treated 0.044 ± 0.014)): 0.051 ± 0.008 μM/min/well
Effect on alkaline phosphatase activity (in words) [1]: promote
Effect on alkaline phosphatase activity (in words) ([1]; listed as kistrin): Promoted
Calcified area ([2]; 10^−5M, Table 3 experiment (non-treated 4.46 ± 0.83)): 4.54 ± 0.88 mm^2/well
Calcified area ([2]; 10^−6M, Table 3 experiment (non-treated 4.46 ± 0.83)): 7.93 ± 1.37 mm^2/well
No. of bone tuberculum ([2]; 10^−6M): 147.8 ± 14.2 per well
Calcified area ([2]; 10^−7M, Table 3 experiment (non-treated 4.46 ± 0.83)): 11.25 ± 1.04 mm^2/well
No. of bone tuberculum ([2]; 10^−7M): 189.5 ± 16.3 per well
Calcified area [2, 5]: 9.87 ± 1.04 mm^2/well
No. of bone tuberculum ([2]; 10^−8M): 161.8 ± 19.2 per well
No. of bone tuberculum ([2]; 10^−9M): 153.8 ± 12.3 per well
Effect on calcification (in words) ([2]; at 10^−6M): prevented completely
Effect on the number of bone tuberculum (in words) ([2]; at 10^−6M): not observed to affect
Effect on calcification (in words) ([2]; at 10^−7 and 10^−8M): promote
Effect on the number of bone tuberculum (in words) ([2]; at 10^−7 and 10^−8M): promote
